Where “and” joins values, the source holds several entries; their conditions need not be identical. Equal entries are not always repeated. Inconclusive results and toxic doses are left out.

The test system of this test is P388 leukemia ip, CD2F1 mice, survival T/C. Put plainly: NCI In Vivo Anticancer Drug Screen. Data for tumor model P388 Leukemia (intraperitoneal) in CD2F1 (CDF1) mice. The following applies: endpoint: median survival time, higher = longer survival. The method in brief:
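Mice carrying the transplanted tumor received test compound or vehicle. Survival was recorded in each group, and the value is the treated-group measurement divided by that of the vehicle-treated control group.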

The mark [1] stands for this setting: dose: 100.0 mg/kg/injection, schedule: Q01DX009 (ip), vehicle: saline.
The mark [2] stands for this setting: dose: 50.0 mg/kg/injection, schedule: Q01DX005 (ip), vehicle: Klucel (hydroxypropylcellulose) (HPC).
[3] abbreviates: dose: 100.0 mg/kg/injection, schedule: Q01DX005 (ip), vehicle: Klucel (hydroxypropylcellulose) (HPC).
Setting [4] is: dose: 60.0 mg/kg/injection, schedule: Q01DX005 (ip), vehicle: saline.
The mark [5] stands for this setting: dose: 120.0 mg/kg/injection, schedule: Q01DX005 (ip), vehicle: saline.
Setting [6] is: dose: 240.0 mg/kg/injection, schedule: Q01DX005 (ip), vehicle: saline.
[7] abbreviates: dose: 25.0 mg/kg/injection, schedule: Q01DX005 (ip), vehicle: saline with Tween-80.
The mark [8] stands for this setting: dose: 50.0 mg/kg/injection, schedule: Q01DX005 (ip), vehicle: saline with Tween-80.
[9] abbreviates: dose: 50.0 mg/kg/injection, schedule: Q01DX009 (ip), vehicle: saline with Tween-80.
Setting [10] is: dose: 100.0 mg/kg/injection, schedule: Q01DX009 (ip), vehicle: saline with Tween-80.
Where [11] appears, read: dose: 200.0 mg/kg/injection, schedule: Q01DX009 (ip), vehicle: saline with Tween-80.
The mark [12] stands for this setting: dose: 100.0 mg/kg/injection, schedule: Q04DX003 (ip), vehicle: saline with Tween-80.
[13] abbreviates: dose: 200.0 mg/kg/injection, schedule: Q04DX003 (ip), vehicle: saline with Tween-80.
Setting [14] is: dose: 400.0 mg/kg/injection, schedule: Q04DX003 (ip), vehicle: saline with Tween-80.
The mark [15] stands for this setting: dose: 100.0 mg/kg/injection, schedule: Q01DX005 (ip), vehicle: saline with Tween-80.

On to `CS(=O)(=O)CC#N`, for which the T/C (dose: 7.5 mg/kg/injection, schedule: Q01DX005 (ip), vehicle: saline) is 96 % of control; the T/C (dose: 15.0 mg/kg/injection, schedule: Q01DX005 (ip), vehicle: saline) was 100 % of control; the T/C (dose: 30.0 mg/kg/injection, schedule: Q01DX005 (ip), vehicle: saline) was 95 % of control.

Regarding `CC1(C)NC(=S)N(O)C1(C)C`, the T/C was 111 % of control (dose: 50.0 mg/kg/injection, schedule: Q01DX009 (ip), vehicle: saline) and 98 % of control under setting [1].

Take `C=Cn1c([N+](=O)[O-])cnc1/C=C/c1ccc(C(=O)N(CC)CC)cc1`: the T/C by setting is: (dose: 100.0 mg/kg/injection, schedule: Q04DX002 (ip), vehicle: saline with Tween-80) 99 % of control; (dose: 200.0 mg/kg/injection, schedule: Q04DX002 (ip), vehicle: saline with Tween-80) 100 % of control; (dose: 400.0 mg/kg/injection, schedule: Q04DX002 (ip), vehicle: saline with Tween-80) 100 % of control.

With `NNC(=O)C12CC3CC(CC(C3)C1)C2`, the T/C was 105 % of control (dose: 25.0 mg/kg/injection, schedule: Q01DX005 (ip), vehicle: Klucel (hydroxypropylcellulose) (HPC)); 105 % of control under setting [2]; 102 % of control under setting [3]; 112 % of control (dose: 200.0 mg/kg/injection, schedule: Q01DX005 (ip), vehicle: Klucel (hydroxypropylcellulose) (HPC)).

For `Cc1ccn(C)n1`, the T/C was 96 % of control under setting [4], 93 % of control under setting [5] and 100 % of control under setting [6].

For `O=C1CN(Cc2ccc(Cl)cc2)CC(=O)N2CCCN12`, the T/C was 96 % of control (dose: 12.5 mg/kg/injection, schedule: Q01DX005 (ip), vehicle: saline with Tween-80); 100 % of control under setting [7]; 100 % of control under setting [8].

Regarding `CC(=O)Cc1cc(-c2cc(CC(C)=O)[nH]n2)n[nH]1`, the T/C was 98 % of control under setting [4], 95 % of control under setting [5] and 102 % of control under setting [6].

As to `CCOC(=O)c1ccc(OC)c2[nH]c3c(c(=O)c12)C(=O)c1[nH]c2c(OC)ccc(C(=O)OCC)c2c(=O)c1C3=O`, the T/C is, setting by setting: (dose: 100.0 mg/kg/injection, schedule: Q04DX003 (ip), vehicle: Klucel (hydroxypropylcellulose) (HPC)) 97 % of control; (dose: 200.0 mg/kg/injection, schedule: Q04DX003 (ip), vehicle: Klucel (hydroxypropylcellulose) (HPC)) 103 % of control; (dose: 400.0 mg/kg/injection, schedule: Q04DX003 (ip), vehicle: Klucel (hydroxypropylcellulose) (HPC)) 100 % of control.

Turning to `O=S(=O)(O)c1cncc(S(=O)(=O)O)n1`, the T/C runs as follows: under setting [1], 110 % of control; (dose: 100.0 mg/kg/injection, schedule: Q04DX003 (ip), vehicle: saline) 100 % of control; (dose: 200.0 mg/kg/injection, schedule: Q01DX009 (ip), vehicle: saline) 105 % of control; (dose: 200.0 mg/kg/injection, schedule: Q04DX003 (ip), vehicle: saline) 104 % of control; (dose: 400.0 mg/kg/injection, schedule: Q01DX009 (ip), vehicle: saline) 100 % of control; (dose: 400.0 mg/kg/injection, schedule: Q04DX003 (ip), vehicle: saline) 100 % of control.

Regarding `CCOC(=O)Nc1ccc2nc(Sc3ccc(C)cc3)sc2c1`, the T/C was 99 % of control under setting [9], 110 % of control under setting [10] and 119 % of control under setting [11].

Regarding `Cc1cn(C2OC(CO)C(O)C2O)c(=O)[nH]c1=O` (stereo unspecified), the T/C under setting [10] was 90 % of control; the T/C under setting [12] was 104 % of control; the T/C under setting [11] is 104 % of control; the T/C under setting [13] was 104 % of control; the T/C (dose: 400.0 mg/kg/injection, schedule: Q01DX009 (ip), vehicle: saline with Tween-80) was 100 % of control; the T/C under setting [14] was 100 % of control.

`CN1C(=O)/C(=C\c2ccccc2)N=C(c2ccccc2)c2cc(Cl)ccc21`: the T/C is, setting by setting: under setting [7], 110 % of control; under setting [8], 96 % of control; under setting [15], 91 % of control.

`CCOc1cccc2c1C(=O)c1c(OCC)c3c(c(OCC)c1C2=O)CC(O)(C(C)=O)CC3O` (stereo unspecified): the T/C reads like this: (dose: 1.56 mg/kg/injection, schedule: Q01DX009 (ip), vehicle: other) 99 % of control; (dose: 3.13 mg/kg/injection, schedule: Q01DX009 (ip), vehicle: other) 102 % of control; (dose: 6.25 mg/kg/injection, schedule: Q01DX009 (ip), vehicle: other) 93 % of control; (dose: 12.5 mg/kg/injection, schedule: Q01DX009 (ip), vehicle: other) 96 % of control; (dose: 25.0 mg/kg/injection, schedule: Q01DX009 (ip), vehicle: other) 90 % of control.

Turning to `C=C(Cl)CC(N)C(=O)O` (stereo unspecified), the T/C runs as follows: under setting [2], 104 % of control; under setting [3], 104 % of control.

With `CCCCNP(=O)(N1CC1)N1CC1`, the T/C is 95 % of control (dose: 0.2 mg/kg/injection, schedule: Q04DX003 (ip), vehicle: saline); 104 % of control (dose: 0.4 mg/kg/injection, schedule: Q04DX003 (ip), vehicle: saline); 118 % of control (dose: 0.8 mg/kg/injection, schedule: Q04DX003 (ip), vehicle: saline); 195 % of control (dose: 6.0 mg/kg/injection, schedule: Q04DX003 (ip), vehicle: saline); 172 % of control (dose: 6.25 mg/kg/injection, schedule: Q01DX009 (ip), vehicle: saline); 154 % of control (dose: 6.25 mg/kg/injection, schedule: Q04DX003 (ip), vehicle: saline). The T/C (dose: 12.5 mg/kg/injection, schedule: Q01DX009 (ip), vehicle: saline) was 118 % of control; the T/C (dose: 12.5 mg/kg/injection, schedule: Q04DX003 (ip), vehicle: saline) was 172 % of control; the T/C (dose: 25.0 mg/kg/injection, schedule: Q04DX003 (ip), vehicle: saline) was 86 % of control.

As to `CC12CCC(=O)C=C1C=CC1C2CCC2(C)C1CCC21CCC(=O)O1` (stereo unspecified), the T/C was 94 % of control under setting [9], 91 % of control under setting [10] and 97 % of control under setting [11].

Regarding `O=c1oc2ccc(Br)cc2cc1-n1nnc2cc([N+](=O)[O-])ccc21`, the T/C under setting [8] is 90 % of control; the T/C under setting [15] was 89 % of control; the T/C (dose: 200.0 mg/kg/injection, schedule: Q01DX005 (ip), vehicle: saline with Tween-80) is 89 % of control.

Regarding `CCCCCCCCCCCCCCCC(=O)N(CCCCN(C)C)CCCCN(C)C`, the T/C (dose: 1.0 mg/kg/injection, schedule: Q01DX009 (ip), vehicle: saline) is 86 % of control and 95 % of control; the T/C (dose: 2.0 mg/kg/injection, schedule: Q01DX009 (ip), vehicle: saline) was 97 % of control; the T/C (dose: 4.0 mg/kg/injection, schedule: Q01DX009 (ip), vehicle: saline) was 97 % of control; the T/C (dose: 8.0 mg/kg/injection, schedule: Q01DX009 (ip), vehicle: saline) is 103 % of control.

As to `CCOC(=O)C1OC1(C(F)(F)F)C(F)(F)F` (stereo unspecified), the T/C by setting is: under setting [9], 93 % of control; under setting [10], 98 % of control; under setting [11], 104 % of control.

On to `COc1cccc2c1C(=O)c1c(O)c3c(c(O)c1C2=O)C[C@@](O)(C(C)O)C[C@@H]3OC1CC(N(C)C)C(O)C(C)O1` (stereo partly specified), for which the T/C reads like this: (dose: 0.78 mg/kg/injection, schedule: Q01DX009 (ip), vehicle: water) 152 % of control; (dose: 1.56 mg/kg/injection, schedule: Q01DX009 (ip), vehicle: water) 159 % of control and 161 % of control; (dose: 2.35 mg/kg/injection, schedule: Q04DX003 (ip), vehicle: water) 107 % of control; (dose: 3.13 mg/kg/injection, schedule: Q01DX009 (ip), vehicle: water) 165 % of control and 172 % of control; (dose: 6.25 mg/kg/injection, schedule: Q01DX009 (ip), vehicle: water) 198 % of control and 209 % of control; (dose: 9.4 mg/kg/injection, schedule: Q04DX003 (ip), vehicle: water) 111 % of control. Further, the T/C (dose: 75.0 mg/kg/injection, schedule: Q04DX003 (ip), vehicle: water) is 108 % of control.

For the compound `CCOc1ccn(CC(=O)c2ccc(Cl)s2)c(=O)n1`, the T/C was 95 % of control under setting [12], 90 % of control under setting [13] and 104 % of control under setting [14].
